Data on 13 molecules can be found in patent US9988407B2, “Prodrugs of prostate specific membrane antigen (PSMA) inhibitor” (THE JOHNS HOPKINS UNIVERSITY, priority 2014, dated 2018).

Series [1] is described as follows: Chemical stability in HBSS buffer (pH 7.4) / simulated gastric fluid. In kind it is physicochemical. The following applies: for chemical stability: chemical hydrolysis / HBSS buffer; for Percentage remaining: HBSS, 10 μM, 37° C. As for the experimental part:
The chemical stability of prodrugs was evaluated using simulated gastric fluid (pH 1.2) and Hanks' Balanced Salt Solution (HBSS) buffer (pH 7.4). Briefly, prodrugs were spiked (10 μM) in respective solutions and incubated at 37° C. for 1 h. At predetermined time points (0, 30 and 60 min), aliquots of 100 μL were removed and diluted with 100 μL of water. Prodrug disappearance was monitored using the developed liquid chromatography and tandem mass spectrometry (LC/MS/MS) method described below.
(§1) For LC/MS/MS, prodrugs were separated with Thermo Scientific Accela UPLC system coupled to Accela open autosampler on an Agilent C18 (100×2.1 mm id) UPLC column. The autosampler was temperature controlled and operating at 10° C. The mobile phase used for the chromatographic separation was composed of acetonitrile/water containing 0.1% formic acid and was run at a flow rate of 0.5 mL/minute for 4.5 minutes using gradient elution. The column effluent was monitored using TSQ Vantage triple-quadrupole mass spectrometric detector, equipped with an electrospray probe set in the positive ionization mode. Samples were introduced into the ionization source through a heated nebulized probe (350° C.).
(§2) For quantification of compound remaining, disappearance of prodrugs was measured from ratio of peak areas of analyte to IS. Percentage remaining was calculated in the following manner: […]

Series [2] can be described thus: In vivo pharmacokinetics in mice, peroral, bioanalysis method 1 (total prodrug exposure). The following applies: oral dosing; for permeability in vivo: mice. As for the experimental part: Blood was obtained via cardiac puncture and tissue dissected at 0 min, 15 min, 30 min, 1 h, 2 h, and 4 h post dose (n=3 per time point). Single time point studies were conducted at 30 min (N=3) following dosing. Plasma was harvested from blood by centrifugation. Mean concentration-time data was used for pharmacokinetic (PK) analysis. Non-compartmental-analysis module in WinNonlin® (version 5.3) was used to assess pharmacokinetic parameters. Peak plasma concentrations (Cmax) and time to Cmax (Tmax) were the observed values. Area under the curve (AUC) was calculated by log-linear (p.o.) trapezoidal rule to the end of sample collection (AUClast) and extrapolated to infinity (AUC0-∞) by dividing the last quantifiable concentration by the terminal disposition rate constant (ke). Terminal half-life (t1/2) was estimated from first order kinetics: t1/2=0.693/ke.
Briefly, prior to extraction, frozen samples were thawed on ice. For plasma extraction, 50 μL of the calibration standards or samples were transferred into silanized microcentrifuge tubes. Sample preparation involved a single liquid extraction by addition of 300 μL of methanol as extraction solution with internal standard (i.e., 5 μM of 2-PMSA in methanol), followed by vortexing for 30 s and then centrifugation at 12000 g for 10 min. Supernatant was transferred (˜250 μL) and evaporated to dryness at 40° C. under a gentle stream of nitrogen. The residue was reconstituted with 100 μL of derivatizing agent, n-butanol with 3N HCl, and samples were vortexed. The samples were heated at ˜60 OC in a shaking water bath for 30 min. At the end of 30 min, the derivatized samples were allowed to cool at room temperature and dried again for removal of derivatizing reagent, under a gentle stream of nitrogen. The residue was reconstituted in 100 μL of 30% acetonitrile in water v/v. The samples were vortexed and centrifuged again. ˜80 μL supernatant was transferred to a 250 μL polypropylene vial sealed with a Teflon cap and a volume of 10 μL was injected onto the ultra-performance liquid chromatography (UPLC) instrument for quantitative analysis. Chromatographic analysis was performed using an Accela™ ultra high-performance system consisting of an analytical pump, and an autosampler coupled with TSQ Vantage mass spectrometer (Thermo Fisher Scientific Inc., Waltham Mass.). […] The mobile phase used was composed of 0.1% formic acid in acetonitrile and 0.1% formic acid in H2O with gradient elution, starting with 20% (organic) linearly increasing to 65% up to 2.5 min, maintaining at 65% (2.5-3.5 min) and reequilibrating to 30% by 5 min. The total run time for each analyte was 5.0 min.

Series [3] is described as follows: Metabolic stability in mouse plasma. In kind it is in vitro ADME. Conditions: 10 μM, 37° C. The procedure:
(§3) For metabolic stability, plasma (mouse, dog, monkey and human) and liver microsomes (mouse, dog, monkey and human) were used. For stability, prodrugs (10 μM) were spiked in each matrix and incubated in an orbital shaker at 37° C. At predetermined times (0, 30 and 60 min), 100 μL aliquots of the mixture in triplicate were removed and the reaction quenched by addition of three times the volume of ice cold acetonitrile spiked with the internal standard (losartan 5 μM). The samples were vortexed for 30 s and centrifuged 12000 g for 10 min. 50 μL supernatant diluted with 50 μL water was transferred to a 250 μL polypropylene vial sealed with a Teflon cap. Prodrug disappearance was monitored over time using a liquid chromatography and tandem mass spectrometry (LC/MS/MS) method as described below.
as §1, §2

The nature of series [4]: Metabolic stability in mouse liver microsomes. The format is in vitro ADME. The following applies: 10 μM, 37° C. As for the experimental part:
as §3, §1, §2

Series [5] is described as follows: Metabolic stability in mouse liver S9. In kind it is in vitro ADME. The following applies: Mouse S9, 10 μM, 37° C.
A short description of series [6]: Metabolic stability in human plasma. The format is in vitro ADME. The following applies: 10 μM, 37° C. As for the experimental part: as §3, §1, §2
Series [7] can be described thus: Metabolic stability in human liver microsomes. Conditions: 10 μM, 37° C. The format is in vitro ADME. As for the experimental part: as §3, §1, §2
(In general: Liver microsomes are a subcellular fraction often used to study metabolism.)

Turning to `CC(C)OC(=O)OCOP(=O)(CC(CCC(=O)O)C(=O)O)OCOC(=O)OC(C)C` (stereo not drawn) [Compound 4], in series [1], the “chemical stability” value is “chemical instability”.
Still for that read-out and setting: the result for `CC(C)(C)C(=O)OCOP(=O)(CC(CCC(=O)O)C(=O)O)OCOC(=O)C(C)(C)C` (stereo not drawn) [Compound 5] reads “chemical instability”.
With `COC(=O)C(CCC(=O)O)CP(=O)(OCOC(=O)C(C)(C)C)OCOC(=O)C(C)(C)C` (stereo not drawn) [Compound 8, 4-({Bis[(pivaloyloxy)methoxy]phosphoryl}methyl)-5-methoxy-5-oxopentanoic acid], the “oral availability of prodrug” value in series [2] was “good oral availability”.
Consider `COC(=O)C(CCC(=O)O)CP(=O)(O)O` (stereo not drawn) [Compound 9], for which, in series [2], the “oral availability of prodrug” value is listed as “good oral availability”.
`COC(=O)CCC(CP(=O)(OCOC(=O)C(C)(C)C)OCOC(=O)C(C)(C)C)C(=O)OCOC(=O)C(C)(C)C` (stereo not drawn) [Compound 11]: in series [1], the “chemical stability” value is “sufficient chemical stability”.
As for `CCCCCCCCCCCCCCCCOCCCOP(=O)(CC(CCC(=O)O)C(=O)O)OCCCOCCCCCCCCCCCCCCCC` (stereo not drawn) [Compound 12, 2-((Bis(3-(hexadecyloxy)propoxy)phosphoryl)methyl)pentanedioic acid], the “chemical stability” value in series [1] is listed as “sufficient chemical stability”.
`COC(=O)CCC(CP(=O)(OCOC(=O)C(C)(C)C)OCOC(=O)C(C)(C)C)C(=O)OC` (stereo not drawn) [Compound 14]: the Percentage remaining was 100% in series [1] (0 min); 46% in series [1] (30 min); 21% in series [1] (60 min); 100% in series [3] (0 min); 0% in series [3] (30 min); 0% in series [3] (60 min). The Percentage remaining in series [4] (0 min) was found to be 100%; in series [4] (30 min), 2%; in series [4] (60 min), 0%; in series [5] (0 min), 100%; in series [5] (30 min), 1%; in series [5] (60 min), 0%. Moreover, the “chemical stability” value in series [1] is “fall apart easily even in HBSS buffer”. Moreover, the “permeability in vivo” value in series [2] is “most permeable”.
With `CCCCOC(=O)c1ccccc1OP(=O)(CC(CCC(=O)OC)C(=O)OC)Oc1ccccc1C(=O)OCCCC` (stereo not drawn) [Compound 16, Dimethyl 2-({bis[2-(butoxycarbonyl)phenoxy]phosphoryl}methyl)pentanedioate], the Percentage remaining in series [1] (0 min) was 100%; in series [1] (30 min), 100%; in series [1] (60 min) it was 95%; in series [3] (0 min) it was 100%; in series [3] (30 min), 3%; in series [3] (60 min) it was 1%. Further, the Percentage remaining in series [4] (0 min) is 100%; in series [4] (30 min) it was 3%; in series [4] (60 min), 2%; in series [5] (0 min) it was 100%; in series [5] (30 min) it was 1%; in series [5] (60 min), 2%. For the same molecule, the “chemical stability” value in series [1] was “stable in HBSS buffer”.
In the case of `CCOC(=O)[C@H](Cc1ccccc1)NP(=O)(CC(CCC(=O)OC)C(=O)OC)N[C@@H](Cc1ccccc1)C(=O)OCC` (stereo partly drawn) [Compound 17, Dimethyl 2-((bis(((S)-1-ethoxy-1-oxo-3-phenylpropan-2-yl)amino)phosphoryl)methyl)pentanedioate], the Percentage remaining in series [1] (0 min) is 100%; in series [1] (30 min), 93%; in series [1] (60 min) it was 93%; in series [3] (0 min), 100%; in series [3] (30 min), 2%; in series [3] (60 min), 1%. For the same molecule, the Percentage remaining in series [4] (0 min) stood at 100%; in series [4] (30 min) it was 2%; in series [4] (60 min) it was 0.1%; in series [5] (0 min), 100%; in series [5] (30 min), 0%; in series [5] (60 min), 0.1%. Also, the “chemical stability” value in series [1] is “stable in HBSS buffer”.
As for `CCCCOC(=O)c1ccccc1OP(=O)(CC(CCC(=O)O)C(=O)OC)Oc1ccccc1C(=O)OCCCC` (stereo not drawn) [Compound 21, 4-({Bis[2-(butoxycarbonyl)phenoxy]phosphoryl}methyl)-5-methoxy-5-oxopentanoic acid], the “permeability in vivo” value in series [2] is given as “did not show a high permeability in vivo”.
Same read-out and setting: the result for `CCCCCCCCCCOP(=O)(CC(CCC(=O)O)C(=O)OC)OCCCCCCCCCC` (stereo not drawn) [Compound 22, 4-{[Bis(decyloxy)phosphoryl]methyl}-5-methoxy-5-oxopentanoic acid] reads “did not show a high permeability in vivo”.
With `CC(C)OC(=O)OCOP(=O)(CC(CCC(=O)O)C(=O)OCC(=O)N(C)C)OCOC(=O)OC(C)C` (stereo not drawn) [Compound 25], the Percentage remaining was 100% in series [3] (0 min); 0% in series [3] (30 min); 0% in series [3] (60 min); 100% in series [4] (0 min); 49% in series [4] (30 min); 22% in series [4] (60 min). Also, the Percentage remaining in series [6] (0 min) was 100%; in series [6] (30 min), 109%; in series [6] (60 min), 76%; in series [7] (0 min), 100%; in series [7] (30 min) it was 80%; in series [7] (60 min), 61%.
As to `CC(C)OC(=O)OC(C)OP(=O)(CC(CCC(=O)O)C(=O)OCC(=O)N(C)C)OC(C)OC(=O)OC(C)C` (stereo not drawn) [Compound 26], the Percentage remaining in series [3] (0 min) came to 100%; in series [3] (30 min), 3%; in series [3] (60 min), 1%; in series [4] (0 min) it was 100%; in series [4] (30 min) it was 86%; in series [4] (60 min), 68%. Also, the Percentage remaining was found to be 100% in series [6] (0 min); 98% in series [6] (30 min); 92% in series [6] (60 min); 100% in series [7] (0 min); 92% in series [7] (30 min); 81% in series [7] (60 min).
